The values below come from ChEMBL document CHEMBL5579829, “Discovery of a potent CDKs/FLT3 PROTAC with enhanced differentiation and proliferation inhibition for AML” (Eur J Med Chem, 2024).

One may read the DC50 as the concentration giving 50% degradation. The term Emax denotes the maximal effect, on the per cent scale that the assay sets. A word on the IC50: it is the point on the concentration scale where inhibition reaches its midpoint.

The target of test [1] is T1, Protein cereblon/Cyclin-dependent kinase 2 (Homo sapiens, UniProt P24941+Q96SW2). As to the kind of experiment: Protac activity at CRBN/CDK2 in human HL-60 cells assessed as induction of CDK2 degradation by Western blot analysis. The class given is cell-based.
Test [2] has as its target T1, Protein cereblon/Cyclin-dependent kinase 2. As to the kind of experiment: Protac activity at CRBN/CDK2 in human HL-60 cells assessed as induction of CDK2 degradation by Western blot analysis relative to control. The class given is cell-based. In general terms: In western blotting, separated proteins are transferred to a membrane and probed.
The target in test [3] is Protein cereblon/Cyclin-dependent kinase 4 (Homo sapiens, UniProt P11802+Q96SW2). Nature of the test: Protac activity at CRBN/CDK4 in human MDA-MB-231 cells assessed as induction of CDK4 degradation measured after 18 hrs by Western blot analysis. The class given is cell-based.
Test [4] addresses Protein cereblon/Cyclin-dependent kinase 6 (Homo sapiens, UniProt Q00534+Q96SW2). Nature of the test: Protac activity at CRBN/CDK6 in human MDA-MB-231 cells assessed as induction of CDK6 degradation measured after 18 hrs by Western blot analysis. The test is classed as cell-based.
The subject of test [5] is HL-60. As to the kind of experiment: Antiproliferative activity against human HL-60 cells measured after 1 to 3 days by CCK-8 assay. The test is classed as functional, cell-based. (Formazan colour is commonly taken as a measure of viable cells.)
Test [6] concerns the target T1, Protein cereblon/Cyclin-dependent kinase 2. As to the kind of experiment: Protac activity at CRBN/CDK2 in human OVCAR-8 cells assessed as induction of CDK2 degradation measured after 6 hrs by Western blot analysis. The class given is cell-based.
Test [7] has as its target Protein cereblon/Cyclin-dependent kinase 9 (Homo sapiens, UniProt P50750+Q96SW2). As to the kind of experiment: Protac activity at CRBN/CDK9 in human OVCAR-8 cells assessed as induction of CDK9 degradation measured after 6 hrs by Western blot analysis. The test is classed as cell-based.
Test [8] addresses T1, Protein cereblon/Cyclin-dependent kinase 2. Nature of the test: Protac activity at CRBN/CDK2 in human Kasumi 1 cells assessed as induction of CDK2 degradation measured after 48 hrs by Western blot analysis. The test is classed as cell-based.
Test [9] relates to HL-60. Nature of the test: Induction of pro-differentiation of human HL-60 cells assessed as CD11b expression at 500 nM measured after 3 days by immunostaining-based flow cytometry (reference value: 8.32 to 10.55%). The test is classed as functional. The conditions noted are these: time 3 day.
In test [10] the test system is HL-60. As to the kind of experiment: Induction of pro-differentiation of human HL-60 cells assessed as CD11b expression at 500 nM measured after 5 days by immunostaining-based flow cytometry (reference value: 10.08 to 10.33%). The test is classed as functional. Conditions: time 5 day. A general note: In flow cytometry, cells or beads pass a laser one at a time.
For test [11], the target named is von Hippel-Lindau disease tumor suppressor/Receptor-type tyrosine-protein kinase FLT3 (Homo sapiens, UniProt P36888+P40337). As to the kind of experiment: Protac activity at VHL/FLT3-ITD (unknown origin) assessed as induction of FLT3 degradation.
Sequence of von Hippel-Lindau disease tumor suppressor/Receptor-type tyrosine-protein kinase FLT3 (P36888 whole entry, looked up, change not shown): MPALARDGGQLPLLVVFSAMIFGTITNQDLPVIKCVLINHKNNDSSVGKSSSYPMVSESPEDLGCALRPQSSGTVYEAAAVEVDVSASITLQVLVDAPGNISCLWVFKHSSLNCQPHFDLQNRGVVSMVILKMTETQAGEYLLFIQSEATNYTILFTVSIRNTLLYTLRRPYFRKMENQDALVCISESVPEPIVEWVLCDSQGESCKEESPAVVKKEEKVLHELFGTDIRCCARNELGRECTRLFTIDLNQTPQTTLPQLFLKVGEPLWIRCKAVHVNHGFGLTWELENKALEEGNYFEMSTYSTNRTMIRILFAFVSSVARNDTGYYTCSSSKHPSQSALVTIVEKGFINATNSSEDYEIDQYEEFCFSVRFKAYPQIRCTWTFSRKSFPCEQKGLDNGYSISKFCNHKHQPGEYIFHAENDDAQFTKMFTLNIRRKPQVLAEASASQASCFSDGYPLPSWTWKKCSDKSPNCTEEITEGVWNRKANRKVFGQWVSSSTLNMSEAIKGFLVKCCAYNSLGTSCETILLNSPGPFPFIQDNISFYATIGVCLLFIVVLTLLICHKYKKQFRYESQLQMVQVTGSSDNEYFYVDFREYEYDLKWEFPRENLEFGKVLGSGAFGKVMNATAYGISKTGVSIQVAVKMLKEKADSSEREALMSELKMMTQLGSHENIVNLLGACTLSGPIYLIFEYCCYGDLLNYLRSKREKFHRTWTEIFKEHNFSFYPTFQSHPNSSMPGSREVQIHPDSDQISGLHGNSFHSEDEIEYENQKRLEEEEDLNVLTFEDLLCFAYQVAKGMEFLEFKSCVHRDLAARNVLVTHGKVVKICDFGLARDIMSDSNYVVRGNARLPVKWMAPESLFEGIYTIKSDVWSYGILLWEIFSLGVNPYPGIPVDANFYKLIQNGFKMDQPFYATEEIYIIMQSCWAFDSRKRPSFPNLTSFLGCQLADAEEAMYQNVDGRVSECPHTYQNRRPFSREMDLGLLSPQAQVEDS
Sequence of von Hippel-Lindau disease tumor suppressor/Receptor-type tyrosine-protein kinase FLT3 (P40337 whole entry, looked up, change not shown): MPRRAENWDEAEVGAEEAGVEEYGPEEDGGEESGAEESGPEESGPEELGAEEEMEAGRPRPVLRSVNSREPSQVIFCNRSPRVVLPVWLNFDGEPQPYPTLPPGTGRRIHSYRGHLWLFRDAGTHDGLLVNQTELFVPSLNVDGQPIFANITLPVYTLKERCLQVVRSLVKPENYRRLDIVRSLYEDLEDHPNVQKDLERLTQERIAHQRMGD

Sequence of Protein cereblon/Cyclin-dependent kinase 9 (P50750 whole entry): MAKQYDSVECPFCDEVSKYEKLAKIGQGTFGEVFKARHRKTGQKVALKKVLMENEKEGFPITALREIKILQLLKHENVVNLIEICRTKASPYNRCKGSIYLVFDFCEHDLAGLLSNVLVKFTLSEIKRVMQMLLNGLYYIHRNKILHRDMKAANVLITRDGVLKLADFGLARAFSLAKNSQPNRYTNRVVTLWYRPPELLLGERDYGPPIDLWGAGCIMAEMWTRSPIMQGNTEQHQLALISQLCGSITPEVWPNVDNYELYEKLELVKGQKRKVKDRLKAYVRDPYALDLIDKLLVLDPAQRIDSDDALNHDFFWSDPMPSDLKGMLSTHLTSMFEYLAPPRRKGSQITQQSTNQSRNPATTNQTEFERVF
Sequence of Protein cereblon/Cyclin-dependent kinase 9 (Q96SW2 whole entry): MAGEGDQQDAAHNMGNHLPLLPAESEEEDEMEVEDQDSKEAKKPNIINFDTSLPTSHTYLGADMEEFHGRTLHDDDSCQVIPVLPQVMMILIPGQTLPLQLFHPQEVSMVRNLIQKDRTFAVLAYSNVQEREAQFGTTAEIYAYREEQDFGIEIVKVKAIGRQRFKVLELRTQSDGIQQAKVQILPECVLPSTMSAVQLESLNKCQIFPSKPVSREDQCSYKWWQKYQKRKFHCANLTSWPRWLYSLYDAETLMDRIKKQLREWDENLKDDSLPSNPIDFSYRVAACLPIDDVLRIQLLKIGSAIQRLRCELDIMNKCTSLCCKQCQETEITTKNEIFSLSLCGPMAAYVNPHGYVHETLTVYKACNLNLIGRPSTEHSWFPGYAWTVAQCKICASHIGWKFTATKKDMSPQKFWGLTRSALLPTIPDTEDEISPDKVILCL
Sequence of Protein cereblon/Cyclin-dependent kinase 6 (Q00534 whole entry): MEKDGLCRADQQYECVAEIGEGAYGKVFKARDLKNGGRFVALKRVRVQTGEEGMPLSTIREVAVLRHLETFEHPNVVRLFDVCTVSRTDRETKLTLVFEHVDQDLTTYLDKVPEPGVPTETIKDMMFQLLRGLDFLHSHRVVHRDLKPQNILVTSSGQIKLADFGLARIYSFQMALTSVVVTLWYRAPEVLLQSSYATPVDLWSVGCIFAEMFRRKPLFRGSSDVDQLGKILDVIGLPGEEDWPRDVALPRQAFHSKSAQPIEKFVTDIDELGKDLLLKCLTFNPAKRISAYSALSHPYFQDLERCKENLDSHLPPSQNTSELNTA
Sequence of Protein cereblon/Cyclin-dependent kinase 6 (Q96SW2 whole entry): as the sequence (Q96SW2 whole entry) above
Sequence of Protein cereblon/Cyclin-dependent kinase 4 (P11802 whole entry): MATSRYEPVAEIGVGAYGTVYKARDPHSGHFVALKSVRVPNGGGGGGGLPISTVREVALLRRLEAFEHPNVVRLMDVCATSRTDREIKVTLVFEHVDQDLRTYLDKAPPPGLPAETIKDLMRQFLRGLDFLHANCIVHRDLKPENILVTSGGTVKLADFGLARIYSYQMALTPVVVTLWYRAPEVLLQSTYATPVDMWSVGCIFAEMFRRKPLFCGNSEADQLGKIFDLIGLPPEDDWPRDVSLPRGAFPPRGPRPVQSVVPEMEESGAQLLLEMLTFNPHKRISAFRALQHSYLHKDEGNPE
Sequence of Protein cereblon/Cyclin-dependent kinase 4 (Q96SW2 whole entry): as the sequence (Q96SW2 whole entry) above

`O=C1CCC(N2C(=O)c3ccc(N4CCC(C(=O)N5CCN(Cc6ccc(NC(=O)c7n[nH]cc7Nc7ncnc8[nH]ccc78)cc6)CC5)CC4)cc3C2=O)C(=O)N1` (stereo not drawn): the DC50 in test [1] is > 100 nM. For the same molecule, in test [2], the Emax is 47.9%.
For the molecule `O=C1CCC(N2C(=O)c3ccc(N4CCC(CN5CCC(CCN6CCC(NC(=O)c7n[nH]cc7NC(=O)c7c(Cl)cccc7Cl)CC6)CC5)C4)cc3C2=O)C(=O)N1` (stereo not drawn), the DC50 in test [1] was > 100 nM. Also, in [2], the Emax came out at 38.9%.
For `CC(=O)c1c(C)c2cnc(Nc3ccc(N4CCN(Cc5cn(CCCCCC(=O)Nc6cccc7c6C(=O)N(C6CCC(=O)NC6=O)C7=O)nn5)CC4)cn3)nc2n(C2CCCC2)c1=O` (stereo not drawn), the DC50 was found to be 12.9 nM in test [3] and 34.1 nM in test [4].
Regarding `O=C1CCC(N2C(=O)c3ccc(N4CCC(C(=O)N5CCC(NC(=O)c6n[nH]cc6NC(=O)c6c(Cl)cccc6Cl)CC5)CC4)cc3C2=O)C(=O)N1` (stereo not drawn), in test [1], the DC50 was 93.3 nM. The Emax in [2] is 59.3%.
Taken in the same sequence, the figures for `O=C1CCC(N2C(=O)c3ccc(N4CCC(CN5CCC(CN6CCC(NC(=O)c7n[nH]cc7NC(=O)c7c(Cl)cccc7Cl)CC6)CC5)CC4)cc3C2=O)C(=O)N1` (stereo not drawn) were > 100 nM and 31.8%.
Take `O=C1CCC(N2C(=O)c3ccc(N4CCC(CN5CCN(Cc6ccc(NC(=O)c7n[nH]cc7Nc7ncnc8[nH]ccc78)cc6)CC5)C4)cc3C2=O)C(=O)N1` (stereo not drawn): in test [1], the DC50 was 1.63 nM. In test [2], the Emax was found to be 76.1%. In the test with HL-60 [5], this molecule came in with an IC50 of 11.7 nM.
The matching figures for `O=C1CCC(N2C(=O)c3ccc(N4CCC(N5CCC(NC(=O)c6n[nH]cc6NC(=O)c6c(Cl)cccc6Cl)CC5)C4)cc3C2=O)C(=O)N1` (stereo not drawn): 7.13 nM, 59.1% and 14 nM.
Regarding `O=C1CCC(N2C(=O)c3ccc(N4CCC(CN5CCC(CCN6CCC(NC(=O)c7n[nH]cc7NC(=O)c7c(Cl)cccc7Cl)CC6)CC5)CC4)cc3C2=O)C(=O)N1` (stereo not drawn), the DC50 in test [1] is > 100 nM. For the same molecule, the Emax in [2] turned out to be 43.5%.
The matching figures for `O=C1CCC(N2C(=O)c3ccc(N4CC(CN5CCC(N6CCC(NC(=O)c7n[nH]cc7NC(=O)c7c(Cl)cccc7Cl)CC6)CC5)C4)cc3C2=O)C(=O)N1` (stereo not drawn): > 100 nM and 43.3%.
Taken in the same sequence, the figures for `O=C1CCC(N2C(=O)c3ccc(N4CC(CN5CCC(CN6CCC(NC(=O)c7n[nH]cc7NC(=O)c7c(Cl)cccc7Cl)CC6)CC5)C4)cc3C2=O)C(=O)N1` (stereo not drawn) were > 100 nM and 9.07%.
Taken in the same sequence, the figures for `O=C1CCC(N2C(=O)c3ccc(N4CC(C(=O)N5CCC(NC(=O)c6n[nH]cc6NC(=O)c6c(Cl)cccc6Cl)CC5)C4)cc3C2=O)C(=O)N1` (stereo not drawn) were > 100 nM and 34.2%.
For the molecule `O=C1CCC(N2C(=O)c3ccc(N4CC(CN5CCC(NC(=O)c6n[nH]cc6NC(=O)c6c(Cl)cccc6Cl)CC5)C4)cc3C2=O)C(=O)N1` (stereo not drawn), the DC50 in test [1] was 13 nM. Further, in test [2], the Emax worked out at 63.2%. This molecule had an IC50 in the test on HL-60 [5] of 20.4 nM.
On to `O=C(NC1CCNCC1)c1n[nH]cc1NC(=O)c1c(Cl)cccc1Cl` [AT-7519], for which the IC50 in the test on HL-60 [5] turned out to be 135 nM.
As to `O=C1CCC(N2C(=O)c3ccc(N4CCC(CN5CCC(NC(=O)c6n[nH]cc6NC(=O)c6c(Cl)cccc6Cl)CC5)C4)cc3C2=O)C(=O)N1` (stereo not drawn), the DC50 in [1] is 4.71 nM. The maximal effect (Emax) in test [2] came out at 67.3%. This molecule also gave an IC50 with HL-60 [5] of 40.8 nM.
Taken in the same sequence, the figures for `O=C1CCC(N2C(=O)c3ccc(N4CCC(CN5CCC(NC(=O)c6n[nH]cc6NC(=O)c6c(Cl)cccc6Cl)CC5)CC4)cc3C2=O)C(=O)N1` (stereo not drawn) were 1.17 nM, 75.8% and 44.6 nM.
In the case of `O=C(CCC(=O)N1CCN(Cc2ccc(NC(=O)c3n[nH]cc3Nc3ncnc4[nH]ccc34)cc2)CC1)NCCNc1cccc2c1C(=O)N(C1CCC(=O)NC1=O)C2=O` (stereo not drawn), the 50% degradation concentration (DC50) in [6] turned out to be 62 nM; in [7], 33 nM.
With `O=C1CCC(N2C(=O)c3ccc(N4CCC(CN5CCC(CN6CCC(NC(=O)c7n[nH]cc7NC(=O)c7c(Cl)cccc7Cl)CC6)CC5)C4)cc3C2=O)C(=O)N1` (stereo not drawn), the DC50 in test [1] is > 100 nM.
On to `O=C1CCC(N2C(=O)c3ccc(N4CCC(CCN5CCC(NC(=O)c6n[nH]cc6NC(=O)c6c(Cl)cccc6Cl)CC5)CC4)cc3C2=O)C(=O)N1` (stereo not drawn), for which the DC50 in [1] is 26.5 nM. Further, in [2], the Emax came to 54.9%. Also, half-maximal inhibition with HL-60 [5] (IC50) was put at 24.1 nM.
For `O=C1CCC(N2C(=O)c3ccc(N4CC(C(=O)N5CCC(N6CCC(NC(=O)c7n[nH]cc7NC(=O)c7c(Cl)cccc7Cl)CC6)CC5)C4)cc3C2=O)C(=O)N1` (stereo not drawn), the half-maximal degradation concentration (DC50) in [1] is > 100 nM.
In the case of `O=C1CCC(N2C(=O)c3ccc(N4CC(CN5CCC(CCN6CCC(NC(=O)c7n[nH]cc7NC(=O)c7c(Cl)cccc7Cl)CC6)CC5)C4)cc3C2=O)C(=O)N1` (stereo not drawn), the DC50 in test [1] was found to be 11.2 nM. The Emax in test [2] turned out to be 65.8%. The molecule further yielded an IC50 with HL-60 [5] of 11.5 nM.
As to `O=C1CCC(N2C(=O)c3ccc(N4CCC(CN5CCC(N6CCC(NC(=O)c7n[nH]cc7NC(=O)c7c(Cl)cccc7Cl)CC6)CC5)CC4)cc3C2=O)C(=O)N1` (stereo not drawn), the DC50 in test [1] was > 100 nM.
For `O=C1CCC(N2C(=O)c3ccc(N4CC(N5CCC(NC(=O)c6n[nH]cc6NC(=O)c6c(Cl)cccc6Cl)CC5)C4)cc3C2=O)C(=O)N1` (stereo not drawn), in test [1], the DC50 came out at 26.1 nM. In test [2], the Emax worked out at 72.8%. In the test on HL-60 [5], this molecule displayed an IC50 of 17.8 nM.
Turning to `Cc1ccsc1C(=O)n1nc(Nc2ccc(S(=O)(=O)NCCOCc3cn(CCOCCOCCNc4cccc5c4C(=O)N(C4CCC(=O)NC4=O)C5=O)nn3)cc2)nc1N` (stereo not drawn), the DC50 in [8] came to 61 nM. Moreover, the IC50 with HL-60 [5] is > 1000 nM. For the same molecule, the Activity in the test on HL-60 [9] was found to be 26.84%; in the test with HL-60 [10], 34.38%.
In the case of `O=C1CCC(N2C(=O)c3ccc(N4CCC(C(=O)N5CCC(N6CCC(NC(=O)c7n[nH]cc7NC(=O)c7c(Cl)cccc7Cl)CC6)CC5)CC4)cc3C2=O)C(=O)N1` (stereo not drawn), the DC50 in test [1] was > 100 nM.
`O=C1CCC(N2C(=O)c3ccc(N4CCC(N5CCC(NC(=O)c6n[nH]cc6NC(=O)c6c(Cl)cccc6Cl)CC5)CC4)cc3C2=O)C(=O)N1` (stereo not drawn): the DC50 in test [1] is 2.8 nM. For the same molecule, the Emax in test [2] came out at 79.2%. The molecule also returned an IC50 in the test on HL-60 [5] of 24.4 nM.
Regarding `O=C1CCC(N2C(=O)c3ccc(N4CC(CN5CCN(Cc6ccc(NC(=O)c7n[nH]cc7Nc7ncnc8[nH]ccc78)cc6)CC5)C4)cc3C2=O)C(=O)N1` (stereo not drawn), the DC50 in test [1] was 1.23 nM. The Emax in test [2] amounted to 58.8%. The IC50 with HL-60 [5] was 13.4 nM.
On to `CCc1nc(C(N)=O)c(Nc2ccc(N3CCN(CCC4CCN(CC(=O)N[C@H](C(=O)N5C[C@H](O)C[C@H]5C(=O)N[C@@H](C)c5ccc(-c6scnc6C)cc5)C(C)(C)C)CC4)CC3)c(OC)c2)nc1NC1CCOCC1`, for which the DC50 in test [11] stood at 7.62 nM.
Turning to `CN1CCN(Cc2ccc(NC(=O)c3n[nH]cc3Nc3ncnc4[nH]ccc34)cc2)CC1`, the half-inhibitory concentration (IC50) with HL-60 [5] is 89.3 nM.
With `O=C1CCC(N2C(=O)c3ccc(N4CCC(CN5CCC(N6CCC(NC(=O)c7n[nH]cc7NC(=O)c7c(Cl)cccc7Cl)CC6)CC5)C4)cc3C2=O)C(=O)N1` (stereo not drawn), the half-maximal degradation concentration (DC50) in [1] is > 100 nM. Besides, in test [2], the maximal effect (Emax) was determined as 28.9%.
